Data from US20230373985A1 (Origenis Gmbh, priority 2020, published 2023).

Assays:
[1] = molecular target: T1, wt human TYK2, catalytic site (Homo sapiens, UniProt P29597); experiment: HTRF KinEASE assay, TYK2; format: biochemical; details: 1 μM ATP; read-out: IC50, Activity Toward TYK2
T1 construct: wt human TYK2, catalytic site; purchased SignalChem
T1 sequence (P29597 897-1176 limits assumed): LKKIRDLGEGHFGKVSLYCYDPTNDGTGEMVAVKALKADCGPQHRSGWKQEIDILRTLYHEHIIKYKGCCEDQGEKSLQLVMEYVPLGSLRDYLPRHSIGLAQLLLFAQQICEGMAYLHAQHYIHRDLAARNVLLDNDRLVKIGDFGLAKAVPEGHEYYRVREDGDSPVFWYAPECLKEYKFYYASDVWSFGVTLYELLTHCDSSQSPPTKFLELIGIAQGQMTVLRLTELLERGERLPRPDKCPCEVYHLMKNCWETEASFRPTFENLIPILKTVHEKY
Summary of the method: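 HTRF KinEASE-TK readout with 1 μM biotinylated TK substrate in 1× kinase buffer, ≥30 min at room temperature, then antibody/streptavidin-XL665 detection for 60 min. TYK2 at 2 nM with 1 μM ATP; JAK2 at 1 nM with 100 μM ATP. Analysis uses emission ratios.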

[2] = molecular target: T2, wt human LRRK2, catalytic site (Homo sapiens, UniProt Q5S007); experiment: TR-FRET LanthaScreen Eu Kinase Binding Assay, LRRK2 wt; details: one range stated for wt and G2019, read-out: IC50, Activity Toward LRRK2(Wt)
T2 construct: 5 nM wt human LRRK2, catalytic site; purchased ThermoFisher
Summary of the method: (§1)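 Competitive tracer-displacement TR-FRET, 1 h at room temperature, read as emission ratio. LRRK2 (wt or G2019S catalytic domain) at 5 nM with 2 nM Eu-anti-GST and 10 nM Tracer 236; full-length NUAK1 at 8 nM with 2 nM Eu-anti-His and 5 nM Tracer 236, all final in Kinase Buffer A.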

[3] = molecular target: T3, G2019S human LRRK2, catalytic site (Homo sapiens, UniProt Q5S007, G2019S); experiment: TR-FRET LanthaScreen Eu Kinase Binding Assay, LRRK2 G2019S; details: LRRK2(G2019); one range stated for wt and G2019; read-out: IC50, Activity Toward LRRK2(G2019)
T3 construct: G2019S human LRRK2, catalytic site; purchased ThermoFisher
Summary of the method: as §1

[4] = molecular target: T4, wt human NUAK1, full length (Homo sapiens, UniProt O60285); experiment: TR-FRET LanthaScreen Eu Kinase Binding Assay, NUAK1; details: read-out: IC50, Activity Toward NUAK1
T4 construct: 8 nM wt human NUAK1, full length (ThermoFisher/USA); purchased ThermoFisher
T4 sequence (O60285 1-661): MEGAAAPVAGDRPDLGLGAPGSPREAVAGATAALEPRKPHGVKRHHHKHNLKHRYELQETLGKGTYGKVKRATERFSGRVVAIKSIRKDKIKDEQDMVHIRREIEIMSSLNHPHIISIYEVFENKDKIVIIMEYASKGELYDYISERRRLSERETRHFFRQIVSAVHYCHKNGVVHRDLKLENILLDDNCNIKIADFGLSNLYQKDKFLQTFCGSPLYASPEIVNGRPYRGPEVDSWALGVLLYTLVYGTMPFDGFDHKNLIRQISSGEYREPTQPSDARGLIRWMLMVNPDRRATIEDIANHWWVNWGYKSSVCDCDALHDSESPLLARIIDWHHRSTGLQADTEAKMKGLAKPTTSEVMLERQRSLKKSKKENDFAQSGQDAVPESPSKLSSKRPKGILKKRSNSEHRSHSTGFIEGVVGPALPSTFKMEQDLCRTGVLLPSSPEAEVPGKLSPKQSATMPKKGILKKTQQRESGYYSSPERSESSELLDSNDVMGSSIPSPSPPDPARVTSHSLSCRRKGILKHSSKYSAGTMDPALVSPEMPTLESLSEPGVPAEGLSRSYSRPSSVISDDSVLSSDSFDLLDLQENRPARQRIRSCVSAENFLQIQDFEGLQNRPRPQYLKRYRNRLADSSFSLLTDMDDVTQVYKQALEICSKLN
Description: The basic protocol for TR-FRET LanthaScreen Eu Kinase Binding Assay inhibitor studies were performed as follows. LanthaScreen Kinase Binding Assays (ThermoFisher/USA) to evaluate inhibitors were performed by addition of 5 μL of test compound in corresponding DMSO dilutions/5 μl of kinase/antibody mixture, 5 μL of tracer into 384 well small volume plates. After incubation for 1 hour at room temperature, plates were read. Data analysis of emission ratios was according LanthaScreen Eu Kinase Binding Assay protocol.
Kinase and assay components were adjusted to final concentrations according to kit protocol. For LRRK2: 5 nM wt human LRRK2, catalytic site, or G2019S human LRRK2, catalytic site (ThermoFisher/USA), 2 nM Eu-Anti-GST Antibody, 10 nM Kinase Tracer 236 in 1× Kinase Buffer A. For NUAK1: 8 nM wt human NUAK1, full length (ThermoFisher/USA), 2 nM Eu-Anti-His Antibody, 5 nM Kinase Tracer 236 in 1× Kinase Buffer A.

[5] = molecular target: T5, wt human JAK1, catalytic site (Homo sapiens, UniProt P23458); experiment: HTRF KinEASE assay, JAK1; format: biochemical; details: 2.5 μM ATP; read-out: IC50, Activity Toward JAK1
T5 construct: wt human JAK1, catalytic site; purchased ThermoFisher
Summary of the method: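 Two-step HTRF KinEASE assay: compound, kinase/biotinylated TK substrate and ATP were incubated at least 30 min at room temperature. Antibody plus streptavidin-XL665 was then added and plates were read after 60 min. Inhibition was derived from emission ratios according to the kit protocol.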

T3 sequence (Q5S007 970-2527 G2019S limits assumed): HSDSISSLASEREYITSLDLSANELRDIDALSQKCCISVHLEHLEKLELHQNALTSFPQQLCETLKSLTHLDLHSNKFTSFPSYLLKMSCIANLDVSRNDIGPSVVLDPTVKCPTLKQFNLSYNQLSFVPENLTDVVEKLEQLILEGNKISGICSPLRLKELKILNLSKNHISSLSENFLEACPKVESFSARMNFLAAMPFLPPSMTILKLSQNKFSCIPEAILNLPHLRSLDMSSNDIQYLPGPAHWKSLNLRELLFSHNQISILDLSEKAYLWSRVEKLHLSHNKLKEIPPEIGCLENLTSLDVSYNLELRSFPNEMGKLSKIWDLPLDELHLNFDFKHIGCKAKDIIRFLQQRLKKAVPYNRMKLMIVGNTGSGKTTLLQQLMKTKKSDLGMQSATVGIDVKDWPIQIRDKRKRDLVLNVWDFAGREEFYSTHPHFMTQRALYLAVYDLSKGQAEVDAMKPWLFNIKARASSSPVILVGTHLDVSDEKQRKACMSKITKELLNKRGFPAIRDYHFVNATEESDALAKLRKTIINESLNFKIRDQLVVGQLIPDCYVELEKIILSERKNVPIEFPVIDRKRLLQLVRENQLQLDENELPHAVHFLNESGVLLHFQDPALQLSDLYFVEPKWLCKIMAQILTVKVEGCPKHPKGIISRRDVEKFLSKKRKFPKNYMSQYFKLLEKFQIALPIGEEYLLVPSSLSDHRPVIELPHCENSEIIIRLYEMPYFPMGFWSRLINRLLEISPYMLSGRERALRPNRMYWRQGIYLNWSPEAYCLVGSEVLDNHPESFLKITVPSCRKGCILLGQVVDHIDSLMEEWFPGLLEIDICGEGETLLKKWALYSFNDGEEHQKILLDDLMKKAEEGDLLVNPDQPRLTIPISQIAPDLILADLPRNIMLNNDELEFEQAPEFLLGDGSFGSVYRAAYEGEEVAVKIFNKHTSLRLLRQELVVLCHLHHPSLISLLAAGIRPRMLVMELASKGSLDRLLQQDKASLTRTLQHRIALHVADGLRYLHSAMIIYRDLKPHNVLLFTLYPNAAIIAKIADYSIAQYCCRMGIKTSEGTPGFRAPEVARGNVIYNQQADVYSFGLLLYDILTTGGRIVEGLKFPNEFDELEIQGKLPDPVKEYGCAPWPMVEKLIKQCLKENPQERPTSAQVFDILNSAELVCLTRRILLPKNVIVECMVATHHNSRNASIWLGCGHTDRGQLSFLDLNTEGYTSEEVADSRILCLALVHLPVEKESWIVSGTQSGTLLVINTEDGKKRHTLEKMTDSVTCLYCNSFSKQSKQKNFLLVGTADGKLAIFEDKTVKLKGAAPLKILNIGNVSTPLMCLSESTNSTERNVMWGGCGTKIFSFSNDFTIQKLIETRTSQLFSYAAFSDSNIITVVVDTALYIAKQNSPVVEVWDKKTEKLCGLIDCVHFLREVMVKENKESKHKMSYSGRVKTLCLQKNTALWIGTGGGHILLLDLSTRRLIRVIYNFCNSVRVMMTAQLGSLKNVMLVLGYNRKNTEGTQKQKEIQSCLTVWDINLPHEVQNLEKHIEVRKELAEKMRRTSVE
T2 sequence (Q5S007 970-2527 limits assumed): as the sequence (Q5S007 970-2527 G2019S limits assumed) above, with S1050G counted along it
T5 sequence (P23458 875-1153 limits assumed): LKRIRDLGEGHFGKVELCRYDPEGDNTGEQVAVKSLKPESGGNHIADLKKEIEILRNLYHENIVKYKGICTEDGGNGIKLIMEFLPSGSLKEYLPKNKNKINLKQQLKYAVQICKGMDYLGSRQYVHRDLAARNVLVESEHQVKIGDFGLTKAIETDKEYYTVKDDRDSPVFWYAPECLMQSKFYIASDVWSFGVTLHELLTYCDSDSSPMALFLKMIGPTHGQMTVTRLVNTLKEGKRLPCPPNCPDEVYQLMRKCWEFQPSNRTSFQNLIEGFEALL

CN(C)C1CCN(C(=O)c2ccc(Nc3cn(-c4c(Cl)cccc4Cl)nc3C(N)=O)cc2)C1 (stereo not shown) [compound 248, 1-(2,6-dichlorophenyl)-4-((4-(3-(dimethylamino)pyrrolidine-1-carbonyl)phenyl)amino)-1H-pyrazole-3-carboxamide]
IC50 [1]: 10 to 100 nM
IC50 [2]: 100 to 1000 nM
IC50 [3]: 100 to 1000 nM
IC50 [4]: 100 to 1000 nM
IC50 [5]: 10 to 100 nM

NC(=O)c1nn(-c2c(Cl)cccc2Cl)cc1Nc1ccc(C(=O)N2CCC(N3CCCC3)C2)cc1 (stereo not shown) [compound 249, 4-((4-([1,3′-bipyrrolidine]-1′-carbonyl)phenyl)amino)-1-(2,6-dichlorophenyl)-1H-pyrazole-3-carboxamide]
IC50 [1]: < 10 nM
IC50 [2]: 100 to 1000 nM
IC50 [3]: 100 to 1000 nM
IC50 [4]: 100 to 1000 nM
IC50 [5]: 100 to 1000 nM

CCc1nc(C(F)(F)F)nn1-c1ccc(Nc2cn(-c3c(F)cccc3F)nc2C(N)=O)cc1 [compound 284]
IC50 [1]: 10 to 100 nM
IC50 [2]: 100 to 1000 nM
IC50 [3]: 100 to 1000 nM
IC50 [4]: 100 to 1000 nM
IC50 [5]: 100 to 1000 nM

Cn1nc(C(F)(F)F)nc1-c1ccc(Nc2cn(-c3c(F)cccc3F)nc2C(N)=O)cc1 [compound 285, 1-(2,6-difluorophenyl)-4-((4-(1-methyl-3-(trifluoromethyl)-1H-1,2,4-triazol-5-yl)phenyl)amino)-1H-pyrazole-3-carboxamide]
IC50 [1]: 10 to 100 nM
IC50 [2]: 100 to 1000 nM
IC50 [3]: 100 to 1000 nM
IC50 [4]: 100 to 1000 nM
IC50 [5]: 10 to 100 nM

CCc1ccnn1-c1ccc(Nc2cn(-c3c(F)cccc3Cl)nc2C(N)=O)cc1 [compound 286, 1-(2-chloro-6-fluorophenyl)-4-((4-(5-ethyl-1H-pyrazol-1-yl)phenyl)amino)-1H-pyrazole-3-carboxamide]
IC50 [1]: 10 to 100 nM
IC50 [2]: 100 to 1000 nM
IC50 [3]: 100 to 1000 nM
IC50 [4]: 100 to 1000 nM
IC50 [5]: 100 to 1000 nM

CCc1ccnn1-c1ccc(Nc2cn(-c3c(F)cccc3F)nc2C(N)=O)cc1 [compound 287, 1-(2,6-difluorophenyl)-4-((4-(5-ethyl-1H-pyrazol-1-yl)phenyl)amino)-1H-pyrazole-3-carboxamide]
IC50 [1]: 100 to 1000 nM
IC50 [2]: 100 to 1000 nM
IC50 [3]: 100 to 1000 nM
IC50 [4]: 10 to 100 nM
IC50 [5]: 100 to 1000 nM

CN1CCC(Oc2ccc(Nc3cn(-c4c(F)cccc4F)nc3C(N)=O)cc2)CC1 [compound 288, 1-(2,6-difluorophenyl)-4-((4-((1-methylpiperidin-4-yl)oxy)phenyl)amino)-1H-pyrazole-3-carboxamide]
IC50 [1]: 10 to 100 nM
IC50 [2]: 100 to 1000 nM
IC50 [3]: 100 to 1000 nM
IC50 [4]: 10 to 100 nM
IC50 [5]: 100 to 1000 nM

CN1CCC(Oc2ccc(Nc3cn(-c4c(F)cccc4Cl)nc3C(N)=O)cc2)CC1 [compound 295, 1-(2-chloro-6-fluorophenyl)-4-((4-((1-methylpiperidin-4-yl)oxy)phenyl)amino)-1H-pyrazole-3-carboxamide]
IC50 [1]: 10 to 100 nM
IC50 [2]: 100 to 1000 nM
IC50 [3]: 100 to 1000 nM
IC50 [4]: 10 to 100 nM
IC50 [5]: 10 to 100 nM

Cc1ccnnc1-c1ccc(Nc2cn(-c3c(F)cccc3F)nc2C(N)=O)cc1 [compound 296, 1-(2,6-difluorophenyl)-4-((4-(4-methylpyridazin-3-yl)phenyl)amino)-1H-pyrazole-3-carboxamide]
IC50 [1]: 10 to 100 nM
IC50 [2]: 100 to 1000 nM
IC50 [3]: 100 to 1000 nM
IC50 [4]: 100 to 1000 nM
IC50 [5]: 100 to 1000 nM

Cn1cc(C(F)(F)F)nc1-c1ccc(Nc2cn(-c3c(F)cccc3F)nc2C(N)=O)cc1 [compound 308, 1-(2,6-difluorophenyl)-4-((4-(1-methyl-4-(trifluoromethyl)-1H-imidazol-2-yl)phenyl)amino)-1H-pyrazole-3-carboxamide]
IC50 [1]: 10 to 100 nM
IC50 [2]: 100 to 1000 nM
IC50 [3]: 100 to 1000 nM
IC50 [4]: 100 to 1000 nM
IC50 [5]: 10 to 100 nM

CC(C)n1ncnc1-c1ccc(Nc2cn(-c3c(F)cccc3F)nc2C(N)=O)cc1 [compound 309, 1-(2,6-difluorophenyl)-4-((4-(1-isopropyl-1H-1,2,4-triazol-5-yl)phenyl)amino)-1H-pyrazole-3-carboxamide]
IC50 [1]: 100 to 1000 nM
IC50 [2]: 10 to 100 nM
IC50 [3]: 10 to 100 nM
IC50 [4]: 100 to 1000 nM
IC50 [5]: 100 to 1000 nM

CN(C)[C@@H]1CCN(C(=O)c2ccc(Nc3cn(-c4c(Cl)cccc4Cl)nc3C(N)=O)cc2)C1 [compound 313, (R)-1-(2,6-dichlorophenyl)-4-((4-(3-(dimethylamino)pyrrolidine-1-carbonyl)phenyl)amino)-1H-pyrazole-3-carboxamide]
IC50 [1]: 10 to 100 nM
IC50 [2]: 100 to 1000 nM
IC50 [3]: 100 to 1000 nM
IC50 [4]: 100 to 1000 nM
IC50 [5]: 10 to 100 nM

NC(=O)c1nn(-c2c(Cl)cccc2Cl)cc1Nc1ccc(C(=O)N2CCC(N)C2)cc1 (stereo not shown) [compound 317, 4-((4-(3-aminopyrrolidine-1-carbonyl)phenyl)amino)-1-(2,6-dichlorophenyl)-1H-pyrazole-3-carboxamide]
IC50 [1]: 10 to 100 nM
IC50 [2]: 100 to 1000 nM
IC50 [3]: 100 to 1000 nM
IC50 [4]: 100 to 1000 nM
IC50 [5]: 10 to 100 nM

NC(=O)c1nn(-c2c(Cl)cccc2Cl)cc1Nc1ccc(C(=O)N2CC[C@@H](N)C2)cc1 [compound 318, (R)-4-((4-(3-aminopyrrolidine-1-carbonyl)phenyl)amino)-1-(2,6-dichlorophenyl)-1H-pyrazole-3-carboxamide]
IC50 [1]: 10 to 100 nM
IC50 [2]: 100 to 1000 nM
IC50 [3]: 100 to 1000 nM
IC50 [4]: 100 to 1000 nM
IC50 [5]: 10 to 100 nM

CC(C)(C)OC(=O)NC1CCN(C(=O)c2ccc(Nc3cn(-c4c(Cl)cccc4Cl)nc3C(N)=O)cc2)C1 (stereo not shown) [compound 323, tert-butyl_(1-(4-((3-carbamoyl-1-(2,6-dichlorophenyl)-1H-pyrazol-4-yl)amino)benzoyl)pyrrolidin-3-yl)carbamate]
IC50 [1]: 10 to 100 nM
IC50 [2]: 100 to 1000 nM
IC50 [3]: 100 to 1000 nM
IC50 [4]: 100 to 1000 nM
IC50 [5]: 100 to 1000 nM

NC(=O)c1nn(-c2c(Cl)cccc2Cl)cc1Nc1ccc(C(=O)N2CC[C@@H](N3CCCC3)C2)cc1 [compound 331, (R)-4-((4-([1,3′-bipyrrolidine]-1′-carbonyl)phenyl)amino)-1-(2,6-dichlorophenyl)-1H-pyrazole-3-carboxamide]
IC50 [1]: 10 to 100 nM
IC50 [2]: 100 to 1000 nM
IC50 [3]: 100 to 1000 nM
IC50 [4]: 100 to 1000 nM
IC50 [5]: 100 to 1000 nM

CC(=O)N1CC(n2cc(C(F)(F)F)nc2-c2ccc(Nc3cn(-c4c(Cl)cccc4Cl)nc3C(N)=O)cc2)C1 [compound 342, 4-((4-(1-(1-acetylazetidin-3-yl)-4-(trifluoromethyl)-1H-imidazol-2-yl)phenyl)amino)-1-(2,6-dichlorophenyl)-1H-pyrazole-3-carboxamide]
IC50 [1]: < 10 nM
IC50 [2]: 100 to 1000 nM
IC50 [3]: 100 to 1000 nM
IC50 [4]: 100 to 1000 nM
IC50 [5]: 100 to 1000 nM
